# Patent US20040266885A1, “Wood preservative compositions” (priority 2001, published 2004)
# Where “and” joins values, the source holds several entries; their conditions need not be identical. Equal entries are not always repeated. Entries after “also recorded” stand apart in the source; their conditions may differ.
# Tested on: C. formosanus
# Assay: Laboratory termite test, modified ASTM 3345-74, soil/sand culture, NaOH carrier, blocks not leached; for Termite Attack Rating: key: Score 0: No attack; Score 1: Attempted attack; Score 2: Slight attack; Score 3: Average attack; Score 4: Strong attack
# Assay type: in vivo
# Design: Termite Attack Rating / Mean Rating (termite attack): scale not given here
# Settings: for Mean Rating (termite attack): mean of 4 specimens; for Mean Rating (termite attack) / Termite Attack Rating: 4 weeks soil/sand culture; for Termite Attack Rating: single specimen
# Description: A further experiment was undertaken according to the modified ASTM 3345-74 test detailed in Example 2 with the following 6 changes to the protocol:
# 1. The solutions tested were as follows:
# 2. The incubation substrate was a soil/sand mixture (1:1) to which had been added 75 ml of de-ionised water. This substrate was chosen as being more representative of the laboratory conditions under which the wild caught termites (C. formosanus) were maintained.
# 3. The treated timber samples were positioned on plastic mesh on top of the soil substrate. This method of placement is that used in European Standard EN 117 and is more representative of the feeding conditions of the wild caught termites maintained in the laboratory.
# 4. 250 termites were used in each incubation vessel.
# 5. The wood block specimens were not subjected to a leaching process.
# 6. Evidence of termite tunneling activity and mortality was determined at completion of the incubation period only (4 weeks) and no examinations were undertaken for surface activity.
structure (smiles),measurement,setting,value
"CC(C)(c1cc(Br)c(O)c(Br)c1)c1cc(Br)c(O)c(Br)c1 [TBBA, Tetrabromobisphenol A]",termiticidal and termite repellent activity (conclusion),,significant termiticidal and termite repellent activity
same,termite survival / mortality at the end of the test period,4 weeks,the majority of the termites were still active at the end of the test period
same,Tunneling Activity,"4 weeks, solution conc. 1%",Yes
same,Visible Mortality,"4 weeks, solution conc. 1%",No
same,Tunneling Activity,"4 weeks, solution conc. 3%",Yes
same,Visible Mortality,"4 weeks, solution conc. 3%",1-33%
same,Tunneling Activity,"4 weeks, solution conc. 5%",Yes
same,Visible Mortality,"4 weeks, solution conc. 5%",1-33%
same,Tunneling Activity,"4 weeks, solution conc. 7%",Yes
same,Visible Mortality,"4 weeks, solution conc. 7%",1-33%
same,Tunneling Activity,"4 weeks, solution conc. 10%",Yes
same,Visible Mortality,"4 weeks, solution conc. 10%",1-33%
same,prevention of termite attack / restriction of termite damage,"all concentrations used (1-10%), 4 weeks",significant attack was prevented by all concentrations; also recorded: a very significant effect in restricting termite damage
same,"toxic value, upper (lowest concentration which protects the wood)","mean loading, solution concentration 3% (TBBF) or 1%, not leached",7.27 kg/m^3
same,Mean Rating (termite attack),solution conc. 1%,1.00
same,Termite Attack Rating,solution conc. 1%,1
same,Mean Rating (termite attack),solution conc. 3%,1.00
same,Termite Attack Rating,solution conc. 3%,1
same,Mean Rating (termite attack),solution conc. 5%,1.00
same,Termite Attack Rating,solution conc. 5%,1
same,Mean Rating (termite attack),solution conc. 7%,0.75
same,Termite Attack Rating,solution conc. 7%,1 and 0
same,Mean Rating (termite attack),solution conc. 10%,1.00
same,Termite Attack Rating,solution conc. 10%,1
same,repellent effect (soil covering of test specimens),"specimens treated with 5, 7 and 10% solutions only partially soil covered",acting as a repellent throughout the trial period
